The text below walks through data of patent US20220185832A1, “CD73 INHIBITORS” (BioArdis LLC, priority 2019, published 2022).

The target in assay [1] is T1, Cell surface CD73 of U87 MG human glioblastoma cells (Homo sapiens, UniProt P21589).
T1 construct: Cell surface CD73 catalyzes the conversion of adenosine monophosphate (AMP) to adenosine and inorganic phosphate; endogenous in cells; host or cells: U87 MG human glioblastoma cells
T1 sequence (P21589 27-549): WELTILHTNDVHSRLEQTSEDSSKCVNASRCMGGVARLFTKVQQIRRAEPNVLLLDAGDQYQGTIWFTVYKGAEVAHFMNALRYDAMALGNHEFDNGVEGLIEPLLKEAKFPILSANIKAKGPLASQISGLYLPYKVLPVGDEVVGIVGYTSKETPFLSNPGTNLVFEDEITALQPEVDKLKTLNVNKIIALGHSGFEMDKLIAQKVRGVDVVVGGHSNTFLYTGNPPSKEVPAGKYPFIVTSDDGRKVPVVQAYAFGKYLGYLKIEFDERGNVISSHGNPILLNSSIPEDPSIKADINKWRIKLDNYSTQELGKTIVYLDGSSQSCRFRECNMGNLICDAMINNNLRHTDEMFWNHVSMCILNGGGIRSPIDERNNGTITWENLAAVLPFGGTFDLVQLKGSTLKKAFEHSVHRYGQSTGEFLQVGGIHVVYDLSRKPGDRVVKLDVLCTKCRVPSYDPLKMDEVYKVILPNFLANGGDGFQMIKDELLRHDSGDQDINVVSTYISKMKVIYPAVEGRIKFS
As to the kind of experiment: CD73 Cellular Assay. Format: cell-based. The note with it: 5000 cells per well, 30 μM AMP, PiColorLock phosphate detection in supernatant, read-out: Potency (IC50). The protocol:
Cell surface CD73 catalyzes the conversion of adenosine monophosphate (AMP) to adenosine and inorganic phosphate. U87 MG human glioblastoma cells express high level of CD73. Cells are treated with compounds in a 96-well assay plate and supernatants are collected into a 384-well detection plate. The concentration of inorganic phosphate (Pi) in the supernatants is determined using the phosphate detection reagent, PiColorLock™ (Innova Bioscience, Cat #303-0125) following the manufacturer's instructions.
Briefly, on the day of the assay, U87 MG cells were harvested and resuspended in assay buffer which consisted of 20 mM HEPES, pH=7.4, 137 mM NaCl, 5.4 mM KCl, 1.3 mM CaCl2, 4.2 mM NaHCO3 and 0.1% glucose. To test the effect of compounds on cellular CD73 enzymatic activity, 500 nL/well of compounds dissolved in DMSO were added to a 96-well TC-treated microplate (Corning #3599). Next, 80 μL/well of U87 MG cells in assay buffer were added to assay plate. After 30 minutes of incubation in an atmosphere of 5% CO2 at 37° C., 20 μL/well of 150 μM AMP (Adenosine 5′-monophosphate monohydrate, Sigma, Cat #01930) in assay buffer was added to assay plate. Final assay conditions consisted of 5000 cells per well in 0.5% DMSO and 30 μM AMP substrate. After 50 minutes of incubation in an atmosphere of 5% CO2 at 37° C., 50 μL/well of supernatant was transferred to the 384-well detection plate (Corning® NBSTM 384 well plates, Cat #3640). Meanwhile “Gold mix” was prepared shortly before use by adding 1/100 volume of accelerator to the PiColorLock™ Gold reagent. 12 μL/well of the “Gold mix” was added to detection plate containing 50 μL/well of supernatant and incubated at 25° C. for 5 minutes. 5 μL/well stabilizer was added to the detection plate and incubated at 25° C. for 30 minutes. The absorbance at 635 nm was measured on a Spark 10M instrument (TECAN).
The percent (%) inhibition at each concentration of a compound was calculated relative to the OD value in the Max and Min control wells contained within each assay plate. The Max control wells contained cells and substrate as 0% inhibition, and the Min control wells only contained cells as 100% inhibition. The concentrations and percent inhibition values for a test compound are plotted and the concentration of the compound required to achieve 50% inhibition (IC50) was determined with a four-parameter logistic dose response equation.

The target of assay [2] is T2, Recombinant Human 5′-Nucleotidase (CD73) (Homo sapiens, UniProt P21589).
T2 construct: CHO derived CD73 (Trp27-Lys547), with a C-terminal 6-His tag; 6-His (C); purchased R&D 5795-EN; host or cells: CHO
T2 sequence (P21589 27-547): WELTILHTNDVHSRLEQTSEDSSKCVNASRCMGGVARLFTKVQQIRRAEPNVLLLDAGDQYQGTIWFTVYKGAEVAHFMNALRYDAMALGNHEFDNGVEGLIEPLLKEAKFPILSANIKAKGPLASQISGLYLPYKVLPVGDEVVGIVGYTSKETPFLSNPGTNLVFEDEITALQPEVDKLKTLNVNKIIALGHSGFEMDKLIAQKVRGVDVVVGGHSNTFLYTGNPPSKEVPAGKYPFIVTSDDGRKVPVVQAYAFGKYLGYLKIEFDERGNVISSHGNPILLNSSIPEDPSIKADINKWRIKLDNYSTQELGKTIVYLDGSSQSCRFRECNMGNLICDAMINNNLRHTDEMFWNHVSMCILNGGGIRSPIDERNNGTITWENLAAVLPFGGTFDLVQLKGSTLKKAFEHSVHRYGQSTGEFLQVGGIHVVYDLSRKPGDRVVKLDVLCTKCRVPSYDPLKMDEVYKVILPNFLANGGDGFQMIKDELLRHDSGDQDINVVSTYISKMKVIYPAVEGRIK
As to the kind of experiment: CD73 Enzyme Assay. Format: biochemical. The note with it: 0.5 nM human CD73, 30 μM AMP, PiColorLock phosphate detection, OD 635 nm; read-out: Potency (IC50). The source says:
Soluble recombinant CD73 catalyzes the conversion of adenosine monophosphate (AMP) to adenosine and inorganic phosphate. The phosphate detection reagent, PiColorLock™ (Innova Bioscience, Cat #303-0125) is based on the change in absorbance of the dye malachite green in the presence of inorganic phosphate (Pi) and this property can be exploited to measure any enzyme that generates Pi. Recombinant Human 5′-Nucleotidase (CD73) (R&D #5795-EN, CHO derived CD73 (Trp27-Lys547), with a C-terminal 6-His tag) was used in the enzymatic assay. This assay was run in a 384-well plate format (Corning® NBS™ 384 well plates, Cat #3640). The basic assay procedure involves two steps: 1) Enzyme reaction: The CD73 enzyme (R&D #5795-EN) is incubated in the presence or absence of compounds. AMP (sigma, cat #01930) is added to start the kinase reaction. 2) Detection step: “Gold mix” is added to the assay system, then stabilizers are added. After incubation the absorbance of the solution is read at OD 635 nm. The recorded OD signal is proportional to the enzyme activity.
Briefly, 25 μl human CD73 (0.5 nM final concentration) in the enzymatic buffer solutions (20 mM Tris, 25 mM NaCl, 1 mM MgCl2, pH 7.5, 0.005% Tween-20) were mixed with various concentrations of the test compound (dissolved in 100% DMSO). These solutions were incubated for 15 min at 25° C., and subsequently 25 μl AMP (30 μM final concentration) was added to start the reaction. The final reaction mixture of enzyme-substrate-compound was incubated for 20 min at 37° C. Meanwhile, “Gold mix” was prepared shortly before use by adding 1/100 vol. of accelerator to the PiColorLock™ Gold reagent. 12 μL/well of the “Gold mix” was added to assay plate containing 50 μL enzyme reaction buffer and incubated at 25° C. for 5 min. 5 μL/well stabilizer was added to the assay plate and incubated at 25° C. for 30 min. The absorbance of the well solutions was measured at 635 nm on a Spark 10M instrument (TECAN).
The percent (%) inhibition at each concentration of a compound was calculated relative to the OD value in the Max and Min control wells contained within each assay plate. The Max control wells contained enzyme and substrate as 0% inhibition, and the Min control wells only contained substrate without enzyme as 100% inhibition. The concentrations and percent inhibition values for a test compound are plotted and the concentration of the compound required to achieve 50% inhibition (IC50) was determined with a four-parameter logistic dose response equation.

Where only a bound is given, the exact number is not on record here.

Broadly, the IC50 is the concentration at which inhibition is half-maximal. For the molecule `O=P(O)(O)CP(=O)(O)OC[C@H]1O[C@@H](c2ccc3c(NC4CCCCC4)nc(Cl)nc3c2)[C@H](O)[C@@H]1O` [Compound 31, (((((2R,3S,4R,5S)-5-(2-chloro-4-(cyclohexylamino)quinazolin-7-yl)-3,4-dihydroxytetrahydrofuran-2-yl)methoxy)(hydroxy)phosphoryl)methyl)phosphonic acid], the IC50 in assay [1] and in assay [2] was less than 10 nM in each case.

For the molecule `O=P(O)(O)CP(=O)(O)OC[C@H]1O[C@@H](c2ccc3c(NCC4CCC4)nc(Cl)nc3c2)[C@H](O)[C@@H]1O` [Compound 8, (((((2R,3S,4R,5S)-5-(2-chloro-4-((cyclobutylmethyl)amino)quinazolin-7-yl)-3,4-dihydroxytetrahydrofuran-2-yl)methoxy)(hydroxy)phosphoryl)methyl)phosphonic acid], the IC50 in assay [1] and in assay [2] was less than 10 nM in each case.

In the case of `O=P(O)(O)CP(=O)(O)OC[C@H]1O[C@@H](c2ccc3c(NCC4CCCO4)nc(Cl)nc3c2)[C@H](O)[C@@H]1O` (stereo partly drawn) [Compound 6, (((((2R,3S,4R,5S)-5-(2-chloro-4-(((tetrahydrofuran-2-yl)methyl)amino)quinazolin-7-yl)-3,4-dihydroxytetrahydrofuran-2-yl)methoxy)(hydroxy)phosphoryl)methyl)phosphonic acid], the results for the IC50 in assay [1] and in assay [2] were less than 10 nM and 10 to 99 nM, respectively.

Regarding `O=P(O)(O)CP(=O)(O)OC[C@H]1O[C@@H](c2ccc3c(N4CC5CCCC5C4)nc(Cl)nc3c2)[C@H](O)[C@@H]1O` (stereo partly drawn) [Compound 24, [({[(2R,3S,4R,5S)-5-(2-chloro-4-{hexahydro-1H-cyclopenta[c]pyrrol-2-yl}quinazolin-7-yl)-3,4-dihydroxyoxolan-2-yl]methoxy}(hydroxy)phosphoryl)methyl]phosphonic acid], the half-inhibitory concentration (IC50) in assay [2] is less than 10 nM.

On to `O=P(O)(O)CP(=O)(O)OC[C@H]1O[C@@H](c2ccc3c(N4CCc5ccccc5C4)nc(Cl)nc3c2)[C@H](O)[C@@H]1O` [Compound 36, [({[(2R,3S,4R,5S)-5-[2-chloro-4-(3,4-dihydro-1H-isoquinolin-2-yl)quinazolin-7-yl]-3,4-dihydroxyoxolan-2-yl]methoxy}(hydroxy)phosphoryl)methyl]phosphonic acid], for which, in assay [2], the IC50 was 10 to 99 nM.

In the case of `COC1CCC(Nc2nc(Cl)nc3cc([C@@H]4O[C@H](COP(=O)(O)CP(=O)(O)O)[C@@H](O)[C@H]4O)ccc23)CC1` (stereo partly drawn) [Compound 27, [({[(2R,3S,4R,5S)-5-{2-chloro-4-[(4-methoxycyclohexyl)amino]quinazolin-7-yl}-3,4-dihydroxyoxolan-2-yl]methoxy}(hydroxy)phosphoryl)methyl]phosphonic acid], the IC50 in assay [2] is 100 to 999 nM.

For `O=P(O)(O)CP(=O)(O)OC[C@H]1O[C@@H](c2cnc3c(NC4CCCC4)nc(Cl)nc3c2)[C@H](O)[C@@H]1O` [Compound 40, (((((2R,3S,4R,5S)-5-(2-chloro-4-(cyclopentylamino)pyrido[3,2-d]pyrimidin-7-yl)-3,4-dihydroxytetrahydrofuran-2-yl)methoxy)(hydroxy)phosphoryl)methyl)phosphonic acid], the IC50 in assay [2] was 10 to 99 nM.

Turning to `CCc1nc(NCc2ccccc2)c2ccc([C@@H]3O[C@H](COP(=O)(O)CP(=O)(O)O)[C@@H](O)[C@H]3O)cc2n1` [Compound 20, [({[(2R,3S,4R,5S)-5-[4-(benzylamino)-2-ethylquinazolin-7-yl]-3,4-dihydroxyoxolan-2-yl]methoxy}(hydroxy)phosphoryl)methyl]phosphonic acid], the IC50 in assay [2] fell in the range of 100 to 999 nM.

For the molecule `N#C[C@@]1(c2ccc3c(NCc4ccccc4)nc(Cl)nc3c2)O[C@H](COP(=O)(O)CP(=O)(O)O)[C@@H](O)[C@H]1O` [Compound 16, (((((2R,3S,4R,5R)-5-(4-(benzylamino)-2-chloroquinazolin-7-yl)-5-cyano-3,4-dihydroxytetrahydrofuran-2-yl)methoxy)(hydroxy)phosphoryl)methyl)phosphonic acid], the IC50 in assay [2] was more than 1000 nM.

As for `O=P(O)(O)CP(=O)(O)OC[C@H]1O[C@@H](c2cccc3c(NCc4ccccc4)nc(Cl)nc23)[C@H](O)[C@@H]1O` [Compound 32, (((((2R,3S,4R,5S)-5-(4-(benzylamino)-2-chloroquinazolin-8-yl)-3,4-dihydroxytetrahydrofuran-2-yl)methoxy)(hydroxy)phosphoryl)methyl)phosphonic acid], the IC50 in assay [2] was 100 to 999 nM.

As to `O=P(O)(O)CP(=O)(O)OC[C@H]1O[C@@H](c2ccc3c(NCC4CCOC4)nc(Cl)nc3c2)[C@H](O)[C@@H]1O` (stereo partly drawn) [Compound 21, [({[(2R,3S,4R,5S)-5-[2-chloro-4-[(oxolan-3-ylmethyl)amino]quinazolin-7-yl]-3,4-dihydroxyoxolan-2-yl]methoxy}(hydroxy)phosphoryl)methyl]phosphonic acid], the IC50 in assay [2] lay in the range of 10 to 99 nM.
